The values below come from paper PMC8863579, “Effects of pharmacological inhibition of the sodium‐dependent phosphate cotransporter 2b (NPT2b) on intestinal phosphate absorption in mouse and rat models” (Pharmacology Research & Perspectives, 2022).

The target in the test is T1, Human NPT2c (Homo sapiens, UniProt Q8N130).
T1 construct: Full Length cDNA Cloning and Generation of Cell Lines Over-Expressing Human NPT2a, NPT2c, Pit1, and Pit2; host or cells: CHO-K1 / T-REx CHO, pJTI R4 CMV-TO, tetracycline-induced
T1 sequence (Q8N130 1-599): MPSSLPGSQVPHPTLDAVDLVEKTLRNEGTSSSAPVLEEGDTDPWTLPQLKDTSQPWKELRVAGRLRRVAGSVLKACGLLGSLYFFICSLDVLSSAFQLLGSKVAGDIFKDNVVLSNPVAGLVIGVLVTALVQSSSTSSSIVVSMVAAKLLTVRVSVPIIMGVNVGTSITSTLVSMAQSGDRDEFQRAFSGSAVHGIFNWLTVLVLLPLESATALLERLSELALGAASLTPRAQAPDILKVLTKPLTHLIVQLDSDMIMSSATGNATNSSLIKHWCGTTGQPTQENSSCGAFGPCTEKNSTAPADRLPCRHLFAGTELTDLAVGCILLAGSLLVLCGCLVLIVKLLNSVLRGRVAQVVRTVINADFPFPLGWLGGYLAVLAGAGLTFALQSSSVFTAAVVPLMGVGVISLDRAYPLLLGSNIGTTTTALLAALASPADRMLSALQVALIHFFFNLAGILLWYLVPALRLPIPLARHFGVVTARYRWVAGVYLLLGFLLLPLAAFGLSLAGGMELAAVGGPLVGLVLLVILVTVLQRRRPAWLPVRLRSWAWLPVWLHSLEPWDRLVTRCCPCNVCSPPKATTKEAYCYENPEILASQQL
The experiment in a line: 33P-phosphate uptake in CHO cells expressing human NPT2c. It is filed as cell-based. The protocol: T‐Rex™ Chinese Hamster Ovary cells (CHO; Thermo Fisher Scientific) stably expressing human, mouse, or rat NPT2b under a tetracycline‐inducible promoter were generated using standard cDNA transfection and clone selection procedures (see Supporting Information). Cells were plated in 96‐well CytoStar‐T® scintillating microplates and were incubated overnight in growth media plus 100 ng/ml of tetracycline to induce expression of NPT2b. The next day, cells were washed 3 times with 200 µl assay buffer (137 mM NaCl, 5.4 mM KCl, 2.8 mM CaCl2, 1.2 mM MgSO4, and 14 mM Tris‐HCl buffer, pH 7.5). LY3358966 serially diluted 1‐to‐3 in DMSO was added to cells with assay buffer. An equal volume of H3 ^33PO4 (PerkinElmer) in assay buffer supplemented with 5 µM potassium phosphate was then added to initiate radiolabeled phosphate (^33P‐phosphate) uptake. […] The plate was immediately read on a Wallac MicroBeta Trilux liquid scintillation counter. Percent inhibition at all concentrations tested was calculated, and IC50 values were then determined using a 4‐parameter logistic curve fitting equation.
Similar methods were used to measure the effects of LY3358966 on other transporters of interest, except that constitutive promoters were used to generate CHO cells over‐expressing human PiT1 and PiT2. The ^33P‐phosphate uptake was measured after 45 min at 20°C for the NPT2a, NPT2c, PiT1, and PiT2 assays. […]

Compound `CC1(C)CN(C(=O)NCCCCO)CCN1Cc1cccc(C(=O)Nc2sc3c(c2C(=O)Nc2cc(F)c(CCc4ccc(C(=O)O)cc4)c(F)c2)CCCC3)c1` [LY3358966, 4‐[2‐[2,6‐difluoro‐4‐[[2‐[[3‐[[4‐(4‐hydroxybutylcarbamoyl)‐2,2‐dimethyl‐piperazin‐1‐yl]methyl]benzoyl]amino]‐4,5,6,7‐tetrahydrobenzothiophene‐3‐carbonyl]amino]phenyl]ethyl]benzoic acid] returned an IC50 (geometric mean, 45 min at 20°C) of 0.251 µM. Where the note is “ratio of IC50 of human NPT2c assay to that of human NPT2b assay”, the Selectivity is reported as 8.

A word on the IC50: it is the concentration needed to halve the response being measured.
